Test results taken from PubChem BioAssay (NCI).
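All cell lines were grown in 96-well plates and treated with compound for 48 hours. GI50 = concentration required for 50% inhibition of growth. The concentration for full growth arrest is given as TGI.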

Key:
Experiment in all cases: DTP human tumour cell line panel, 48 h
[1] = test system: OVCAR-4 ovarian
[2] = test system: SR leukemia
[3] = test system: LXFL 529 NSCLC
[4] = test system: RPMI-8226 leukemia
[5] = test system: NCI-H226 lung
[6] = test system: SNB-78 CNS
[7] = test system: A549 NSCLC
[8] = test system: UO-31 renal
[9] = test system: M19-MEL melanoma

SMILES	TGI [1]	TGI [2]	TGI [3]	TGI [4]	TGI [5]	TGI [6]	TGI [7]	TGI [8]	TGI [9]	GI50 [1]	GI50 [2]	GI50 [3]	GI50 [4]	GI50 [5]	GI50 [6]	GI50 [7]
CC(=O)N1CCN(C=S)CC1	> 100 µM	> 100 µM	> 100 µM	> 100 µM	> 100 µM	> 100 µM	> 100 µM	> 100 µM	> 100 µM	–	–	–	–	–	–	–
N#CC1([N+](=O)[O-])C=C1c1ccccc1 (centres undefined)	> 100 µM	70.3 µM	> 100 µM	49.5 µM	> 100 µM	> 100 µM	> 100 µM	> 100 µM	> 100 µM	–	–	–	–	–	–	–
N#CCCn1c(CCC(=O)Nc2ccc(Cl)cc2Cl)n[nH]c1=S	> 100 µM	> 100 µM	> 100 µM	> 100 µM	> 100 µM	> 100 µM	> 100 µM	> 100 µM	> 100 µM	–	–	–	–	–	–	–
CCCCCCC(=O)CC(=O)C(=O)Nc1ccccc1C	> 100 µM	> 100 µM	> 100 µM	> 100 µM	> 100 µM	> 100 µM	> 100 µM	> 100 µM	> 100 µM	–	–	–	–	–	–	–
O=C1OC(=O)C2C1C1C(c3ccccc3)=C(c3ccccc3)C2(O)C2C(=O)OC(=O)C12 (centres undefined)	> 100 µM	> 100 µM	> 100 µM	> 100 µM	> 100 µM	> 100 µM	> 100 µM	> 100 µM	> 100 µM	–	–	–	–	–	–	–
C/C(=N\NS(=O)(=O)c1ccccc1)c1ccc[n+]([O-])n1	> 100 µM	> 100 µM	> 100 µM	> 100 µM	–	> 100 µM	> 100 µM	> 100 µM	> 100 µM	–	–	–	–	–	–	–
CN(C)c1ccc(/C=c2\sc3nnc(Cc4ccccc4)n3c2=O)cc1	> 100 µM	> 100 µM	> 100 µM	> 100 µM	> 100 µM	> 100 µM	> 100 µM	> 100 µM	> 100 µM	> 100 µM	> 100 µM	> 100 µM	> 100 µM	> 100 µM	> 100 µM	> 10 µM
C=C1CC(CC(=O)C(C)CC2CC(=C)C(=O)O2)OC1=O (centres undefined)	30.5 µM	24.1 µM	27.8 µM	–	–	49.7 µM	> 100 µM	> 100 µM	30.3 µM	–	–	–	–	–	–	–
CCc1cccc(CC)c1NC(=O)C1=CNC(C)=C(C(=O)Nc2c(CC)cccc2CC)C1c1ccc(O)c(OC)c1 (centres undefined)	91.4 µM	–	> 100 µM	45.3 µM	89.7 µM	> 100 µM	> 100 µM	> 100 µM	> 100 µM	–	–	–	–	–	–	–
CC1CCC2[C@@H](C)COC3O[C@]4(C)CCC1C32OO4 (some centres undefined)	> 100 µM	–	> 100 µM	–	> 100 µM	> 100 µM	> 100 µM	> 100 µM	–	–	–	–	–	–	–	–
O=S1Cc2ccccc2CSS1 (centres undefined)	31.7 µM	51.2 µM	27.2 µM	39.8 µM	55.4 µM	62 µM	46.7 µM	32.6 µM	44.9 µM	–	–	–	–	–	–	–
CC(=O)Nc1ccc(OCC(O)CO)cc1 (centres undefined)	> 100 µM	> 100 µM	> 100 µM	43.9 µM	> 100 µM	> 100 µM	> 100 µM	> 100 µM	> 100 µM	–	–	–	–	–	–	–
Cc1ccc(SSCCCCS(=O)O)cc1	32 µM	–	25.5 µM	–	–	> 100 µM	70.6 µM	39.8 µM	64.5 µM	–	–	–	–	–	–	–
Cc1ccccc1NC(=O)CC(=O)n1nc(-c2ccccc2)c(N=Nc2ccc([N+](=O)[O-])cc2)c1-c1ccccc1	> 100 µM	> 100 µM	> 100 µM	69.4 µM	58.4 µM	> 100 µM	41.8 µM	34.8 µM	–	–	–	–	–	–	–	–
C(=NCCN=Cc1cccc2ccccc12)c1cccc2ccccc12	> 100 µM	> 100 µM	> 100 µM	> 100 µM	> 100 µM	> 100 µM	> 100 µM	> 100 µM	> 100 µM	–	–	–	–	–	–	–
C#Cc1ccccc1N1C(=O)C=CC1=O	> 100 µM	> 100 µM	> 100 µM	> 100 µM	> 100 µM	> 100 µM	> 100 µM	> 100 µM	> 100 µM	–	–	–	–	–	–	–
ClCCCN1CCCCC1CCl (centres undefined)	> 100 µM	> 100 µM	> 100 µM	> 100 µM	–	–	> 100 µM	> 100 µM	> 100 µM	–	–	–	–	–	–	–
CCOc1ccccc1NC(=O)C(=O)c1c(O)c2ccc(O)cc2oc1=O	> 100 µM	> 100 µM	> 100 µM	–	> 100 µM	> 100 µM	> 100 µM	> 100 µM	> 100 µM	–	–	–	–	–	–	–
CC(=O)OC1(C#N)CC2OC1C1NC21 (centres undefined)	> 100 µM	–	> 100 µM	> 100 µM	> 100 µM	> 100 µM	> 100 µM	> 100 µM	> 100 µM	–	–	–	–	–	–	–
CN/N=C(/CC(=O)c1sc(NNC(C)=O)nc1C)C(=O)Nc1ccc(OC)cc1OC	> 100 µM	> 100 µM	> 100 µM	> 100 µM	> 100 µM	> 100 µM	> 100 µM	> 100 µM	> 100 µM	–	–	–	–	–	–	–
NNC(=O)N/N=C1/C(=O)N(c2ccc(Cl)c(Cl)c2)C(=O)C(=O)C1c1nc2ccccc2o1 (centres undefined)	> 100 µM	–	> 100 µM	–	> 100 µM	> 100 µM	> 100 µM	> 100 µM	> 100 µM	–	–	–	–	–	–	–
